From patent US20250250285A1, “IRON-ACTIVABLE NITROGEN-CONTAINING DERIVATIVES OF SALINOMYCIN AND NARASIN, SYNTHESIS AND USE FOR THE TREATMENT OF CANCERS” (Centre National de la Recherche Scientifique, priority 2021, published 2025) come the findings set out here.

Data set [1] has as its system PDAC030T. Nature of the data set: Cell viability (CellTiter-Blue), IC50 on PDAC030T. It counts as cell-based, human. As to conditions: 72 h treatment. A general note: Resazurin is reduced to fluorescent resorufin, in cell work by metabolically active cells.
Method: (§2) Cell viability was evaluated by plating 4000 cells/well in 96-well plates using CellTiter-Blue viability assay according to the manufacturer's protocol. […] CellTiter-Blue reagent (Promega, G8081) was added after 72 h treatment and cells were incubated for 2 h before recording fluorescence intensities (ex. 560 nm; em. 590 nm) using a Perkin Elmer Wallac 1420 Victor2 Microplate Reader.
Data set [2] concerns PDAC053T. Nature of the data set: Cell viability (CellTiter-Blue), IC50 on PDAC053T. As to conditions: for IC50: PDAC053T, 72 h treatment, CellTiter-Blue. It counts as cell-based, human. The procedure:
PDAC053T cells were a generous gift from Juan Iovanna (INSERM) and cultured in serum-free ductal medium as published before (Gastroenterology. 2004, 127(1):250-260). Liproxstatin-1 (Sigma Aldrich, Cat #SML1414) was used at a concentration of 1 μM.

Data set [3] has as its system PDAC085T. The data set can be described thus: Cell viability (CellTiter-Blue), IC50 on PDAC085T. The settings on record: 72 h treatment. In kind it is cell-based, human.
Method: as §2
The test system of data set [4] is PDAC090T. The data set can be described thus: Cell viability (CellTiter-Blue), IC50 on PDAC090T. It counts as cell-based, human. As to conditions: 72 h treatment.
Method: as §2
The subject of data set [5] is PDAC211T. Nature of the data set: Cell viability (CellTiter-Blue), IC50 on PDAC211T. In kind it is cell-based, human. As to conditions: 72 h treatment.
Method: as §2
Data set [6] has as its system HMLER CD44^high/CD24^low cells. Nature of the data set: IC50 on HMLER CD44high/CD24low cells (breast cancer stem cell model). It counts as cell-based, human. The settings on record: mesenchymal state. The source says: (§1) The inventors also evaluated the biological activity of prodrugs and parent structures against transformed human mammary epithelial HMLER CD44^high/CD24^low cells, a model of human breast cancer stem cells stable in the mesenchymal state, and against control epithelial HMLER CD44^low/CD24^high cells.

In data set [7] the test system is HMLER CD44^low/CD24^high cells. Nature of the data set: IC50 on control epithelial HMLER CD44low/CD24high cells. It counts as cell-based, human.
Text: as §1

Data set [8] deals with MCF10A. The data set can be described thus: IC50 on nontumorigenic epithelial breast cell MCF10A. The settings on record: for toxicity toward nontumorigenic epithelial cells compared with respective parent compound: in words, versus parent compound.
Method: as §2
In addition to the above distinct patient-derived pancreatic ductal adenocarcinoma (PDAC) cell lines, the compounds were also evaluated against nontumorigenic epithelial breast cell MCF10A.
The mark [9] stands for this setting: MCF10A nontumorigenic epithelial breast cell.

Like-named read-outs stand apart in the source and are kept apart here. Bounds are passed on as bounds.

As usually defined, the IC50 is the midpoint of a concentration-inhibition curve. A lower IC50 goes with higher potency.

In the case of C20-cyclopropyloaminonarasin [Nar-AM23], the half-maximal inhibitory concentration (IC50) is 0.06 µM in data set [1]; 0.2 µM in data set [2]; 0.04 µM in data set [3]; 0.32 µM in data set [4]; 0.05 µM in data set [5]; 0.01 µM in data set [6]. The IC50 in data set [7] was 0.45 µM; in data set [8] (setting [9]) it was 0.1 µM.

In the case of `C[C@H]1[C@@H](O)O[C@@H]2O[C@@]3(C)CC[C@H]4[C@H](C)CC[C@@H]1[C@@]24OO3` [DHA, dihydroartemisinin, reference compound], the IC50 in data set [1] (Homo sapiens) was 8.08 µM; in data set [2] (Homo sapiens), greater than 50 µM; in data set [3] (Homo sapiens), 21.6 µM; in data set [4] (Homo sapiens) it was 35.4 µM; in data set [5] (Homo sapiens), 10.3 µM; in data set [6] (Homo sapiens) it was 2.85 µM. Further, the IC50 in data set [7] (Homo sapiens) is 14.2 µM; in data set [8] (Homo sapiens, MCF-10A), 5.45 µM.

Regarding `C#CCN[C@@H]1C=C[C@]2(O[C@H]([C@@H](CC)C(=O)[C@@H](C)[C@@H](O)[C@H](C)C3O[C@@H](C(CC)C(=O)OC)CC[C@@H]3C)[C@@H](C)C[C@H]2C)O[C@@]12CC[C@@](C)([C@H]1CC[C@](O)(CC)[C@H](C)O1)O2` (some centres unmarked) [AM9, C1 Methyl Ester of Ironomycin, reference compound], the IC50 in data set [1] was 5.67 µM; in data set [2], 7.46 µM; in data set [3] it was 8.88 µM; in data set [4] it was 5.89 µM; in data set [5] it was 5.01 µM; in data set [6], 13.2 µM. Further, the figures for the IC50 in data set [7] and in data set [8] (setting [9]) were 15.2 µM and 12.2 µM, respectively.

In the case of `CC[C@@H](C(=O)[C@@H](C)[C@@H](O)[C@H](C)[C@@H]1O[C@@H]([C@@H](CC)C(=O)OC2O[C@@H]3O[C@]4(C)CC[C@H]5[C@H](C)CC[C@@H]([C@H]2C)[C@@]35OO4)CC[C@@H]1C)[C@H]1O[C@]2(C=C[C@@H](O)[C@]3(CC[C@@](C)([C@H]4CC[C@](O)(CC)[C@H](C)O4)O3)O2)[C@H](C)C[C@@H]1C` (some centres unmarked) [MA-I-023, Salinomycin-dihydroartemisinin prodrug], the IC50 stood at 0.75 µM in data set [1] (Homo sapiens); 3.88 µM in data set [2] (Homo sapiens); 3.32 µM in data set [3] (Homo sapiens); 4.53 µM in data set [4] (Homo sapiens); 3.13 µM in data set [5] (Homo sapiens); 0.48 µM in data set [6] (Homo sapiens). This compound gave an IC50 in data set [7] (Homo sapiens) of 0.82 µM.

Regarding C20-propargyloaminonarasin [Nar-AM5], the IC50 in data set [1] is 0.22 µM; in data set [2] it was 0.88 µM; in data set [3] it was 0.12 µM; in data set [4] it was 0.8 µM; in data set [5], 0.22 µM; in data set [6], 0.11 µM. Further, the half-inhibitory concentration (IC50) in data set [7] was determined as 1.08 µM; in data set [8] (setting [9]), 0.22 µM.

As for `CC[C@@H](C(=O)OC1O[C@@H]2O[C@]3(C)CC[C@H]4[C@H](C)CC[C@@H]([C@H]1C)[C@@]24OO3)[C@@H]1O[C@@H]([C@@H](C)[C@H](O)[C@H](C)C(=O)[C@H](CC)[C@H]2O[C@]3(C=C[C@@H](NC4CC4)[C@]4(CC[C@@](C)([C@H]5CC[C@](O)(CC)[C@H](C)O5)O4)O3)[C@H](C)C[C@@H]2C)[C@@H](C)C[C@@H]1C` (some centres unmarked) [MA-I-095, C20-cyclopropylaminonarasin-dihydroartemisinin prodrug], the IC50 in data set [1] (Homo sapiens) stood at 0.12 µM; in data set [2] (Homo sapiens) it was 0.09 µM; in data set [3] (Homo sapiens), 0.07 µM; in data set [4] (Homo sapiens), 0.18 µM; in data set [5] (Homo sapiens), 0.49 µM; in data set [6] (Homo sapiens) it was 0.76 µM. Further, the IC50 was determined as 1.96 µM in data set [7] (Homo sapiens) and 5.24 µM in data set [8] (Homo sapiens, MCF-10A). In data set [2] (PDAC053T cells, in words), the “potency compared with Nar-AM23” value is on record as “more potent”. Also, the “toxicity toward nontumorigenic epithelial cells compared with respective parent compound” value in data set [8] was “less toxic”.

As to `CC[C@@H](C(=O)[C@@H](C)[C@@H](O)[C@H](C)[C@@H]1O[C@@H]([C@@H](CC)C(=O)O)CC[C@@H]1C)[C@H]1O[C@]2(C=C[C@@H](O)[C@]3(CC[C@@](C)([C@H]4CC[C@](O)(CC)[C@H](C)O4)O3)O2)[C@H](C)C[C@@H]1C` [Salinomycin], the IC50 in data set [1] (Homo sapiens) was found to be 1.61 µM; in data set [2] (Homo sapiens) it was 4.5 µM; in data set [3] (Homo sapiens), 1.56 µM; in data set [4] (Homo sapiens), 2.66 µM; in data set [5] (Homo sapiens), 1.29 µM; in data set [6] (Homo sapiens), 1.38 µM. In addition, the IC50 stood at 4.36 µM in data set [7] (Homo sapiens) and 1.13 µM in data set [8] (Homo sapiens, MCF-10A).

Consider `C#CCN[C@@H]1C=C[C@]2(O[C@H]([C@@H](CC)C(=O)[C@@H](C)[C@@H](O)[C@H](C)[C@@H]3O[C@@H]([C@@H](CC)C(=O)O)CC[C@@H]3C)[C@@H](C)C[C@H]2C)O[C@@]12CC[C@@](C)([C@H]1CC[C@](O)(CC)[C@H](C)O1)O2` [Ironomycin, reference compound], for which the IC50 in data set [1] was determined as 2.67 µM; in data set [2], 2.6 µM; in data set [3], 0.72 µM; in data set [4], 0.63 µM; in data set [5], 0.18 µM; in data set [6], 0.16 µM. Also, the results for the IC50 in data set [7] and in data set [8] (setting [9]) were 1.79 µM and 0.12 µM, respectively.

Take “C20-cyclopropylaminosalinomycin [AM23, reference compound]”: the concentration for half-maximal inhibition (IC50) was 0.11 µM in data set [1]; 0.83 µM in data set [2]; 0.36 µM in data set [3]; 0.21 µM in data set [4]; 0.04 µM in data set [5]; 0.01 µM in data set [6]. The results for the IC50 in data set [7] and in data set [8] (setting [9]) were 0.5 µM and 0.3 µM, respectively.

As for `CC[C@@H](C(=O)O)[C@@H]1O[C@@H]([C@@H](C)[C@H](O)[C@H](C)C(=O)[C@H](CC)[C@H]2O[C@]3(C=C[C@@H](O)[C@]4(CC[C@@](C)([C@H]5CC[C@](O)(CC)[C@H](C)O5)O4)O3)[C@H](C)C[C@@H]2C)[C@@H](C)C[C@@H]1C` [Narasin], the IC50 was found to be 1.18 µM in data set [1] (Homo sapiens); 2 µM in data set [2] (Homo sapiens); 0.5 µM in data set [3] (Homo sapiens); 1.16 µM in data set [4] (Homo sapiens); 0.73 µM in data set [5] (Homo sapiens); 0.45 µM in data set [6] (Homo sapiens). Moreover, the IC50 in data set [7] (Homo sapiens) is 2.96 µM; in data set [8] (Homo sapiens, MCF-10A) it was 0.79 µM.

As for `CC[C@@H](C(=O)OC1O[C@@H]2O[C@]3(C)CC[C@H]4[C@H](C)CC[C@@H]([C@H]1C)[C@@]24OO3)[C@@H]1O[C@@H]([C@@H](C)[C@H](O)[C@H](C)C(=O)[C@H](CC)[C@H]2O[C@]3(C=C[C@@H](O)[C@]4(CC[C@@](C)([C@H]5CC[C@](O)(CC)[C@H](C)O5)O4)O3)[C@H](C)C[C@@H]2C)[C@@H](C)C[C@@H]1C` (some centres unmarked) [MA-I-081, narasin-dihydroartemisinin prodrug], the IC50 came to 0.09 µM in data set [1] (Homo sapiens); 0.54 µM in data set [2] (Homo sapiens); 0.44 µM in data set [3] (Homo sapiens); 0.74 µM in data set [4] (Homo sapiens); 0.45 µM in data set [5] (Homo sapiens); 0.19 µM in data set [6] (Homo sapiens). In data set [7] (Homo sapiens), this compound displayed an IC50 of 0.5 µM.

Take C20-epi-ironomycin [Epi-AM5]: the IC50 in data set [1] was 2.87 µM; in data set [2], 2.17 µM; in data set [3], 0.67 µM; in data set [4], 4.16 µM; in data set [5], 1.48 µM; in data set [6], 1.8 µM. Besides, the IC50 in data set [7] was found to be 11.8 µM; in data set [8] (setting [9]) it was 1.34 µM.

`C#CCN[C@H]1C=C[C@]2(O[C@H]([C@@H](CC)C(=O)[C@@H](C)[C@@H](O)[C@H](C)[C@@H]3O[C@@H]([C@@H](CC)C(=O)OC4O[C@@H]5O[C@]6(C)CC[C@H]7[C@H](C)CC[C@@H]([C@H]4C)[C@@]57OO6)CC[C@@H]3C)[C@@H](C)C[C@H]2C)O[C@@]12CC[C@@](C)([C@H]1CC[C@](O)(CC)[C@H](C)O1)O2` (some centres unmarked) [MA-I-096]: the IC50 was found to be 0.09 µM in data set [1] (Homo sapiens); 0.52 µM in data set [2] (Homo sapiens); 0.36 µM in data set [3] (Homo sapiens); 0.69 µM in data set [4] (Homo sapiens); 0.33 µM in data set [5] (Homo sapiens); 0.2 µM in data set [6] (Homo sapiens). The IC50 in data set [7] (Homo sapiens) was 0.36 µM; in data set [8] (Homo sapiens, MCF-10A), 1.37 µM.

For the compound `C#CCN[C@@H]1C=C[C@]2(O[C@H]([C@@H](CC)C(=O)[C@@H](C)[C@@H](O)[C@H](C)[C@@H]3O[C@@H]([C@@H](CC)C(=O)OC4O[C@@H]5O[C@]6(C)CC[C@H]7[C@H](C)CC[C@@H]([C@H]4C)[C@@]57OO6)CC[C@@H]3C)[C@@H](C)C[C@H]2C)O[C@@]12CC[C@@](C)([C@H]1CC[C@](O)(CC)[C@H](C)O1)O2` (some centres unmarked) [MA-I-062, Ironomycin-dihydroartemisinin prodrug], the IC50 in data set [1] (Homo sapiens) came out at 0.5 µM; in data set [2] (Homo sapiens), 1.79 µM; in data set [3] (Homo sapiens), 1.17 µM; in data set [4] (Homo sapiens), 2.19 µM; in data set [5] (Homo sapiens) it was 0.1 µM; in data set [6] (Homo sapiens), 0.16 µM. In addition, the IC50 in data set [7] (Homo sapiens) is 0.48 µM; in data set [8] (Homo sapiens, MCF-10A) it was 2.03 µM. Besides, the “toxicity toward nontumorigenic epithelial cells compared with respective parent compound” value in data set [8] is listed as “less toxic”.
